From US4242512A, “Novel thioamide derivatives containing a pyridazine group” (Morishita Pharmaceutical Co., Ltd., priority 1979, dated 1980)

How the values were obtained:
[1] = test system: aspirin-induced gastric ulcers in pylorus-ligated rats; assay: Effect on aspirin-induced gastric ulcers in pylorus-ligated rats; type: in vivo; conditions: for Inhibition (aspirin-induced gastric ulcers): 10 rats; for Inhibition (aspirin-induced gastric ulcers) / ED50: 7 hrs after aspirin 100 mg/kg p.o.; for Safety Margin LD50/ED50 (aspirin-induced ulcers): LD50 mice p.o. / ED50 pylorus-ligated rats i.d., Table 2; for ED50: Rattus norvegicus, i.d., pylorus-ligated rats
Method: (§1) As illustrative evidence of the remarkable high gastric antisecretory activity of the compounds of the invention, tests were conducted on, and comparisons made with, closely similar compounds in the prior art. The following Tables 2 and 3 show the results of such tests according to previously identified techniques from the literature.
Effect on aspirin-induced gastric ulcers in pylorus-ligated
Each drug was given […] intraduodenally (i.d.) immediately after pyloru
ligation in a volume of 0.5 ml/100 g of body weight. Animals were
sacrificed 7 hrs after aspirin (100 mg/kg, p.o.) administration.

Shay ulceration in rats = assay: Effect on Shay ulceration in rats; type: in vivo; conditions: for Inhibition (Shay ulceration): 10 rats; for Inhibition (Shay ulceration) / ED50: 13 hours after drug treatment; for Safety Margin LD50/ED50 (Shay ulceration): LD50 mice p.o. / ED50 Shay rats i.d., Table 3; for ED50: Rattus norvegicus, i.d., rats
Method: as §1
(§2) Effect on Shay ulceration in rats and acute toxicity in mice.
Each drug was given either intraduodenally (i.d.) immediately after
pylorus ligation in a volume of 0.5 ml/100 g of body weight. The animals
were sacrificed 13 hours after drug treatment.

Acute toxicity in mice = conditions: mouse, in vivo, po, Table 2, read-out: LD50 (Table 2, head printed "50 (mg/kg) P.O. Orally")
Method: as §1
rats and acute toxicity in mice.
as §2

Structure (SMILES)	Inhibition (aspirin-induced gastric ulcers) ([1]; 10 mg/kg i.d.)	Inhibition (aspirin-induced gastric ulcers) ([1]; 30 mg/kg i.d.)	Safety Margin LD50/ED50 (aspirin-induced ulcers) [1]	ED50 [1]	Inhibition (Shay ulceration) (Shay ulceration in rats; 10 mg/kg i.d.)	Inhibition (Shay ulceration) (Shay ulceration in rats; 30 mg/kg i.d.)	Safety Margin LD50/ED50 (Shay ulceration) (Shay ulceration in rats)	ED50 (Shay ulceration in rats)	LD50 (Acute toxicity in mice)
NC(=S)C(c1ccccc1)c1cccnn1 (stereo not drawn) [Ex. 1, 2-Phenyl-2-(3-pyridazinyl)thioacetamide]	48.6%	97.7%	85.12	11.5 mg/kg	33.3%	95.8%	78.40	12.5 mg/kg	980 mg/kg
Cc1ccc(C(C(N)=S)c2ccccc2)nn1 (stereo not drawn) [Ex. 2, 2-Phenyl-(6-methyl-3-pyridazinyl)thioacetomide]	3.2%	89.0%	80.95	21 mg/kg	50.0%	91.7%	154.54	11 mg/kg	1700 mg/kg
NC(=S)C(c1ccccc1)c1cnccn1 (stereo not drawn) [U.S. Pat. No. 3,624,085 Ex. 12]	15.4%	50.8%	30.80	30 mg/kg	18.3%	57.7%	33.00	28 mg/kg	924 mg/kg
CCC(C(N)=S)c1ccccn1 (stereo not drawn) [U.S. Pat. No. 3,686,190 Ex. 1]	11.3%	45.7%	12.88	52 mg/kg	12.0%	46.5%	17.70	34 mg/kg	670 mg/kg
NC(=S)C(c1ccccc1)c1ncccn1 (stereo not drawn) [U.S. Pat. No. 3,624,085 Ex. 9]	22.3%	74.0%	64.86	18.5 mg/kg	28.2%	65.0%	46.15	26 mg/kg	1200 mg/kg
